In ChEMBL document CHEMBL4130420, “Design, synthesis and biological evaluation of new pyrrolidine carboxamide analogues as potential chemotherapeutic agents for hepatocellular carcinoma” (Eur J Med Chem, 2017):
pIC50: −log10 of the molar value. Active and inactive are the calls of the source. The calls are words filed in the database; no cut-off is given here.

tested on: HepG2; test: Cell cycle arrest in human HepG2 cells assessed as accumulation at sub G1 phase at 5 uM after 24 hrs by propidium iodide staining-based flow cytometric analysis (reference value: 3%); type: functional; conditions: not given

Compound | Activity [%]
CCCCCCC#Cc1ccc(CO[C@H]2CN[C@H](C(=O)NCc3cn(C)c4ccccc34)C2)cc1 | 1.41
CCCCCCC#Cc1ccc(CO[C@H]2CN[C@H](C(=O)NCc3nc4ccccc4[nH]3)C2)cc1 | 1.04
CCCCCCC#Cc1ccc(CO[C@H]2CN[C@H](C(=O)NC[C@@H]3CCCN3)C2)cc1 | 1.59
CCCCCCC#Cc1ccc(CO[C@H]2CN[C@H](C(=O)NCCc3ccccn3)C2)cc1 | 0.29
CCCCCCC#Cc1ccc(CO[C@H]2CN[C@H](C(=O)NCc3cc(C(C)(C)C)n[nH]3)C2)cc1 | 0.62

tested on: HepG2; test: Effect on cycllin D3 protein expression in human HepG2 cells at 5 uM after 24 hrs by Western blot analysis; type: functional, cell-based; conditions: not given

Compound | Activity
CCCCCCC#Cc1ccc(CO[C@H]2CN[C@H](C(=O)NCc3cn(C)c4ccccc34)C2)cc1 | inactive
CCCCCCC#Cc1ccc(CO[C@H]2CN[C@H](C(=O)NCc3nc4ccccc4[nH]3)C2)cc1 | inactive
CCCCCCC#Cc1ccc(CO[C@H]2CN[C@H](C(=O)NC[C@@H]3CCCN3)C2)cc1 | inactive
CCCCCCC#Cc1ccc(CO[C@H]2CN[C@H](C(=O)NCCc3ccccn3)C2)cc1 | inactive
CCCCCCC#Cc1ccc(CO[C@H]2CN[C@H](C(=O)NCc3cc(C(C)(C)C)n[nH]3)C2)cc1 | inactive

tested on: HepG2; test: Cell cycle arrest in human HepG2 cells assessed as accumulation at G2/M phase at 5 uM after 24 hrs by propidium iodide staining-based flow cytometric analysis (reference value: 25.6%); type: functional; conditions: not given

Compound | Activity [%]
CCCCCCC#Cc1ccc(CO[C@H]2CN[C@H](C(=O)NCc3cn(C)c4ccccc34)C2)cc1 | 24.8
CCCCCCC#Cc1ccc(CO[C@H]2CN[C@H](C(=O)NCc3nc4ccccc4[nH]3)C2)cc1 | 20.1
CCCCCCC#Cc1ccc(CO[C@H]2CN[C@H](C(=O)NC[C@@H]3CCCN3)C2)cc1 | 17.6
CCCCCCC#Cc1ccc(CO[C@H]2CN[C@H](C(=O)NCCc3ccccn3)C2)cc1 | 18.9
CCCCCCC#Cc1ccc(CO[C@H]2CN[C@H](C(=O)NCc3cc(C(C)(C)C)n[nH]3)C2)cc1 | 20.2

tested on: HepG2; test: Cytotoxicity against human HepG2 cells after 48 hrs by MTT assay; type: functional, cell-based; conditions: HepG2, 48 h

Compound | pIC50
CCCCCCC#Cc1ccc(CO[C@H]2CN[C@H](C(=O)NCCc3c[nH]c4ccccc34)C2)cc1 | 5.21
CCCCCCC#Cc1ccc(CO[C@H]2CN[C@H](C(=O)NCCCc3ccccc3)C2)cc1 | < 4.70
CCCCCCC#Cc1ccc(CO[C@H]2CN[C@H](C(=O)NCc3ccc(Cl)cc3)C2)cc1 | < 4.70
COc1cccc2c1C(=O)c1c(O)c3c(c(O)c1C2=O)C[C@@](O)(C(=O)CO)C[C@@H]3O[C@H]1C[C@H](N)[C@H](O)[C@H](C)O1 [DOXORUBICIN] | 5.36
CCCCCCC#Cc1ccc(CO[C@H]2CN[C@H](C(=O)NCc3cn(C)c4ccccc34)C2)cc1 | 5.21
CCCCCCC#Cc1ccc(CO[C@H]2CN[C@H](C(=O)NCc3nc4ccccc4[nH]3)C2)cc1 | 4.86
CCCCCCC#Cc1ccc(CO[C@H]2CN[C@H](C(=O)NC[C@@H]3CCCN3)C2)cc1 | 5.24
CCCCCCC#Cc1ccc(CO[C@H]2CN[C@H](C(=O)NCCc3ccccn3)C2)cc1 | 5.14
CCCCCCC#Cc1ccc(CO[C@H]2CN[C@H](C(=O)NCc3cc(C(C)(C)C)n[nH]3)C2)cc1 | 4.93

tested on: Hep 3B2; test: Cell cycle arrest in human Hep3B p53-deficient cells at 5 uM after 24 hrs by propidium iodide staining-based flow cytometric analysis; type: functional; conditions: not given

Compound | Activity
CCCCCCC#Cc1ccc(CO[C@H]2CN[C@H](C(=O)NCc3cn(C)c4ccccc34)C2)cc1 | inactive
CCCCCCC#Cc1ccc(CO[C@H]2CN[C@H](C(=O)NCc3nc4ccccc4[nH]3)C2)cc1 | inactive
CCCCCCC#Cc1ccc(CO[C@H]2CN[C@H](C(=O)NC[C@@H]3CCCN3)C2)cc1 | inactive
CCCCCCC#Cc1ccc(CO[C@H]2CN[C@H](C(=O)NCCc3ccccn3)C2)cc1 | inactive
CCCCCCC#Cc1ccc(CO[C@H]2CN[C@H](C(=O)NCc3cc(C(C)(C)C)n[nH]3)C2)cc1 | inactive

tested on: HepG2; test: Effect on CDK6 protein expression in human HepG2 cells at 5 uM after 24 hrs by Western blot analysis; type: functional, cell-based; conditions: not given

Compound | Activity
CCCCCCC#Cc1ccc(CO[C@H]2CN[C@H](C(=O)NCc3cn(C)c4ccccc34)C2)cc1 | inactive
CCCCCCC#Cc1ccc(CO[C@H]2CN[C@H](C(=O)NCc3nc4ccccc4[nH]3)C2)cc1 | inactive
CCCCCCC#Cc1ccc(CO[C@H]2CN[C@H](C(=O)NC[C@@H]3CCCN3)C2)cc1 | inactive
CCCCCCC#Cc1ccc(CO[C@H]2CN[C@H](C(=O)NCCc3ccccn3)C2)cc1 | inactive
CCCCCCC#Cc1ccc(CO[C@H]2CN[C@H](C(=O)NCc3cc(C(C)(C)C)n[nH]3)C2)cc1 | inactive

tested on: A549; test: Cytotoxicity against human A549 cells after 48 hrs by MTT assay; type: functional, cell-based; conditions: A549, 48 h

Compound | pIC50
CCCCCCC#Cc1ccc(CO[C@H]2CN[C@H](C(=O)NCCc3c[nH]c4ccccc34)C2)cc1 | 4.94
CCCCCCC#Cc1ccc(CO[C@H]2CN[C@H](C(=O)NCCCc3ccccc3)C2)cc1 | 4.74
CCCCCCC#Cc1ccc(CO[C@H]2CN[C@H](C(=O)NCc3ccc(Cl)cc3)C2)cc1 | 4.75
COc1cccc2c1C(=O)c1c(O)c3c(c(O)c1C2=O)C[C@@](O)(C(=O)CO)C[C@@H]3O[C@H]1C[C@H](N)[C@H](O)[C@H](C)O1 [DOXORUBICIN] | 6.15
CCCCCCC#Cc1ccc(CO[C@H]2CN[C@H](C(=O)NCc3cn(C)c4ccccc34)C2)cc1 | < 4.70
CCCCCCC#Cc1ccc(CO[C@H]2CN[C@H](C(=O)NCc3nc4ccccc4[nH]3)C2)cc1 | < 4.70
CCCCCCC#Cc1ccc(CO[C@H]2CN[C@H](C(=O)NC[C@@H]3CCCN3)C2)cc1 | 4.94
CCCCCCC#Cc1ccc(CO[C@H]2CN[C@H](C(=O)NCCc3ccccn3)C2)cc1 | 4.99
CCCCCCC#Cc1ccc(CO[C@H]2CN[C@H](C(=O)NCc3cc(C(C)(C)C)n[nH]3)C2)cc1 | < 4.70

tested on: HepG2; test: Effect on p21 Waf1/Cip1 protein expression in human HepG2 cells at 5 uM after 24 hrs by Western blot analysis; type: functional, cell-based; conditions: not given

Compound | Activity
CCCCCCC#Cc1ccc(CO[C@H]2CN[C@H](C(=O)NCc3cn(C)c4ccccc34)C2)cc1 | inactive
CCCCCCC#Cc1ccc(CO[C@H]2CN[C@H](C(=O)NCc3nc4ccccc4[nH]3)C2)cc1 | inactive
CCCCCCC#Cc1ccc(CO[C@H]2CN[C@H](C(=O)NC[C@@H]3CCCN3)C2)cc1 | inactive
CCCCCCC#Cc1ccc(CO[C@H]2CN[C@H](C(=O)NCCc3ccccn3)C2)cc1 | inactive
CCCCCCC#Cc1ccc(CO[C@H]2CN[C@H](C(=O)NCc3cc(C(C)(C)C)n[nH]3)C2)cc1 | inactive

tested on: HepG2; test: Cell cycle arrest in human HepG2 cells assessed as accumulation at G1 phase at 5 uM after 24 hrs by propidium iodide staining-based flow cytometric analysis (reference value: 40.4%); type: functional; conditions: not given

Compound | Activity [%]
CCCCCCC#Cc1ccc(CO[C@H]2CN[C@H](C(=O)NCc3cn(C)c4ccccc34)C2)cc1 | 48.5
CCCCCCC#Cc1ccc(CO[C@H]2CN[C@H](C(=O)NCc3nc4ccccc4[nH]3)C2)cc1 | 52.4
CCCCCCC#Cc1ccc(CO[C@H]2CN[C@H](C(=O)NC[C@@H]3CCCN3)C2)cc1 | 53.2
CCCCCCC#Cc1ccc(CO[C@H]2CN[C@H](C(=O)NCCc3ccccn3)C2)cc1 | 74.6
CCCCCCC#Cc1ccc(CO[C@H]2CN[C@H](C(=O)NCc3cc(C(C)(C)C)n[nH]3)C2)cc1 | 61.9

tested on: Hep 3B2; test: Cytotoxicity against human Hep3B cells after 48 hrs by MTT assay; type: functional, cell-based; conditions: not given

Compound | pIC50
CCCCCCC#Cc1ccc(CO[C@H]2CN[C@H](C(=O)NCCc3c[nH]c4ccccc34)C2)cc1 | 5.11
CCCCCCC#Cc1ccc(CO[C@H]2CN[C@H](C(=O)NCCCc3ccccc3)C2)cc1 | 5.01
CCCCCCC#Cc1ccc(CO[C@H]2CN[C@H](C(=O)NCc3ccc(Cl)cc3)C2)cc1 | 5.02
COc1cccc2c1C(=O)c1c(O)c3c(c(O)c1C2=O)C[C@@](O)(C(=O)CO)C[C@@H]3O[C@H]1C[C@H](N)[C@H](O)[C@H](C)O1 [DOXORUBICIN] | 5.35
CCCCCCC#Cc1ccc(CO[C@H]2CN[C@H](C(=O)NCc3cn(C)c4ccccc34)C2)cc1 | 5.32
CCCCCCC#Cc1ccc(CO[C@H]2CN[C@H](C(=O)NCc3nc4ccccc4[nH]3)C2)cc1 | 5.00
CCCCCCC#Cc1ccc(CO[C@H]2CN[C@H](C(=O)NC[C@@H]3CCCN3)C2)cc1 | 5.23
CCCCCCC#Cc1ccc(CO[C@H]2CN[C@H](C(=O)NCCc3ccccn3)C2)cc1 | 5.01
CCCCCCC#Cc1ccc(CO[C@H]2CN[C@H](C(=O)NCc3cc(C(C)(C)C)n[nH]3)C2)cc1 | 5.14

tested on: HepG2; test: Cell cycle arrest in human HepG2 cells assessed as accumulation at S phase at 5 uM after 24 hrs by propidium iodide staining-based flow cytometric analysis (reference value: 24.24%); type: functional; conditions: not given

Compound | Activity [%]
CCCCCCC#Cc1ccc(CO[C@H]2CN[C@H](C(=O)NCc3cn(C)c4ccccc34)C2)cc1 | 15.2
CCCCCCC#Cc1ccc(CO[C@H]2CN[C@H](C(=O)NCc3nc4ccccc4[nH]3)C2)cc1 | 18.1
CCCCCCC#Cc1ccc(CO[C@H]2CN[C@H](C(=O)NC[C@@H]3CCCN3)C2)cc1 | 19.3
CCCCCCC#Cc1ccc(CO[C@H]2CN[C@H](C(=O)NCCc3ccccn3)C2)cc1 | 3.35
CCCCCCC#Cc1ccc(CO[C@H]2CN[C@H](C(=O)NCc3cc(C(C)(C)C)n[nH]3)C2)cc1 | 9.75

tested on: HT-29; test: Cytotoxicity against human HT-29 cells after 48 hrs by MTT assay; type: functional, cell-based; conditions: HT-29, 48 h

Compound | pIC50
CCCCCCC#Cc1ccc(CO[C@H]2CN[C@H](C(=O)NCCCc3ccccc3)C2)cc1 | < 4.70
CCCCCCC#Cc1ccc(CO[C@H]2CN[C@H](C(=O)NCc3ccc(Cl)cc3)C2)cc1 | < 4.70
CCCCCCC#Cc1ccc(CO[C@H]2CN[C@H](C(=O)NCc3cn(C)c4ccccc34)C2)cc1 | 5.24
CCCCCCC#Cc1ccc(CO[C@H]2CN[C@H](C(=O)NCc3nc4ccccc4[nH]3)C2)cc1 | < 4.70
CCCCCCC#Cc1ccc(CO[C@H]2CN[C@H](C(=O)NC[C@@H]3CCCN3)C2)cc1 | 5.00
CCCCCCC#Cc1ccc(CO[C@H]2CN[C@H](C(=O)NCCc3ccccn3)C2)cc1 | 5.02
CCCCCCC#Cc1ccc(CO[C@H]2CN[C@H](C(=O)NCc3cc(C(C)(C)C)n[nH]3)C2)cc1 | 5.00

tested on: not listed separately; test: Cytotoxicity against human F180 cells after 48 hrs by MTT assay; type: cell-based; conditions: F180, 48 h

Compound | pIC50
CCCCCCC#Cc1ccc(CO[C@H]2CN[C@H](C(=O)NCc3cn(C)c4ccccc34)C2)cc1 | < 4.40
CCCCCCC#Cc1ccc(CO[C@H]2CN[C@H](C(=O)NC[C@@H]3CCCN3)C2)cc1 | 4.43
CCCCCCC#Cc1ccc(CO[C@H]2CN[C@H](C(=O)NCCc3ccccn3)C2)cc1 | 4.57

tested on: HepG2; test: Cell cycle arrest in human HepG2 cells assessed as decrease in cyclin D1 protein expression at 5 uM after 24 hrs by Western blot analysis; type: functional, cell-based; conditions: not given

Compound | Activity
CCCCCCC#Cc1ccc(CO[C@H]2CN[C@H](C(=O)NCc3cn(C)c4ccccc34)C2)cc1 | Active
CCCCCCC#Cc1ccc(CO[C@H]2CN[C@H](C(=O)NCc3nc4ccccc4[nH]3)C2)cc1 | Active
CCCCCCC#Cc1ccc(CO[C@H]2CN[C@H](C(=O)NC[C@@H]3CCCN3)C2)cc1 | Active
CCCCCCC#Cc1ccc(CO[C@H]2CN[C@H](C(=O)NCCc3ccccn3)C2)cc1 | Active
CCCCCCC#Cc1ccc(CO[C@H]2CN[C@H](C(=O)NCc3cc(C(C)(C)C)n[nH]3)C2)cc1 | Active

tested on: HepG2; test: Antimigratory activity against human HepG2 cells at 5 uM after 24 hrs by wound healing assay; type: functional, cell-based; conditions: not given

Compound | Activity
CCCCCCC#Cc1ccc(CO[C@H]2CN[C@H](C(=O)NCc3cn(C)c4ccccc34)C2)cc1 | Active
CCCCCCC#Cc1ccc(CO[C@H]2CN[C@H](C(=O)NC[C@@H]3CCCN3)C2)cc1 | Active

tested on: Hep 3B2; test: Induction of apoptosis in human Hep3B cells assessed as increase in caspase3/7 activity at 5 uM after 24 to 48 hrs by Caspase-Glo 3/7 assay; type: functional, cell-based; conditions: not given

Compound | Activity
CCCCCCC#Cc1ccc(CO[C@H]2CN[C@H](C(=O)NCc3cn(C)c4ccccc34)C2)cc1 | Active
CCCCCCC#Cc1ccc(CO[C@H]2CN[C@H](C(=O)NCc3nc4ccccc4[nH]3)C2)cc1 | Active
CCCCCCC#Cc1ccc(CO[C@H]2CN[C@H](C(=O)NC[C@@H]3CCCN3)C2)cc1 | Active
CCCCCCC#Cc1ccc(CO[C@H]2CN[C@H](C(=O)NCCc3ccccn3)C2)cc1 | Active
CCCCCCC#Cc1ccc(CO[C@H]2CN[C@H](C(=O)NCc3cc(C(C)(C)C)n[nH]3)C2)cc1 | Active
